Test results as given in patent publication US12545669B2, “Cycloalkyl and heterocycloalkyl benzisoxazole sulfonamide derivatives” (Pfizer Inc., priority 2019, dated 2026).
pIC50, pKi: −log10 of the molar value. Where two headings read alike, the source gives them in different places. Each block holds one molecule with its values, some of them ahead of it.

Key:
[1] = target: KAT6A (Homo sapiens (Human), UniProt Q92794); test: KAT assay protocol (SAMDI mass spectrometry), KAT6A; assay type: biochemical; details: for inhibition at 1 µM: 1 μM compound; for pIC50: 1 μM AcCoA
Sequence of KAT6A (Q92794 whole entry): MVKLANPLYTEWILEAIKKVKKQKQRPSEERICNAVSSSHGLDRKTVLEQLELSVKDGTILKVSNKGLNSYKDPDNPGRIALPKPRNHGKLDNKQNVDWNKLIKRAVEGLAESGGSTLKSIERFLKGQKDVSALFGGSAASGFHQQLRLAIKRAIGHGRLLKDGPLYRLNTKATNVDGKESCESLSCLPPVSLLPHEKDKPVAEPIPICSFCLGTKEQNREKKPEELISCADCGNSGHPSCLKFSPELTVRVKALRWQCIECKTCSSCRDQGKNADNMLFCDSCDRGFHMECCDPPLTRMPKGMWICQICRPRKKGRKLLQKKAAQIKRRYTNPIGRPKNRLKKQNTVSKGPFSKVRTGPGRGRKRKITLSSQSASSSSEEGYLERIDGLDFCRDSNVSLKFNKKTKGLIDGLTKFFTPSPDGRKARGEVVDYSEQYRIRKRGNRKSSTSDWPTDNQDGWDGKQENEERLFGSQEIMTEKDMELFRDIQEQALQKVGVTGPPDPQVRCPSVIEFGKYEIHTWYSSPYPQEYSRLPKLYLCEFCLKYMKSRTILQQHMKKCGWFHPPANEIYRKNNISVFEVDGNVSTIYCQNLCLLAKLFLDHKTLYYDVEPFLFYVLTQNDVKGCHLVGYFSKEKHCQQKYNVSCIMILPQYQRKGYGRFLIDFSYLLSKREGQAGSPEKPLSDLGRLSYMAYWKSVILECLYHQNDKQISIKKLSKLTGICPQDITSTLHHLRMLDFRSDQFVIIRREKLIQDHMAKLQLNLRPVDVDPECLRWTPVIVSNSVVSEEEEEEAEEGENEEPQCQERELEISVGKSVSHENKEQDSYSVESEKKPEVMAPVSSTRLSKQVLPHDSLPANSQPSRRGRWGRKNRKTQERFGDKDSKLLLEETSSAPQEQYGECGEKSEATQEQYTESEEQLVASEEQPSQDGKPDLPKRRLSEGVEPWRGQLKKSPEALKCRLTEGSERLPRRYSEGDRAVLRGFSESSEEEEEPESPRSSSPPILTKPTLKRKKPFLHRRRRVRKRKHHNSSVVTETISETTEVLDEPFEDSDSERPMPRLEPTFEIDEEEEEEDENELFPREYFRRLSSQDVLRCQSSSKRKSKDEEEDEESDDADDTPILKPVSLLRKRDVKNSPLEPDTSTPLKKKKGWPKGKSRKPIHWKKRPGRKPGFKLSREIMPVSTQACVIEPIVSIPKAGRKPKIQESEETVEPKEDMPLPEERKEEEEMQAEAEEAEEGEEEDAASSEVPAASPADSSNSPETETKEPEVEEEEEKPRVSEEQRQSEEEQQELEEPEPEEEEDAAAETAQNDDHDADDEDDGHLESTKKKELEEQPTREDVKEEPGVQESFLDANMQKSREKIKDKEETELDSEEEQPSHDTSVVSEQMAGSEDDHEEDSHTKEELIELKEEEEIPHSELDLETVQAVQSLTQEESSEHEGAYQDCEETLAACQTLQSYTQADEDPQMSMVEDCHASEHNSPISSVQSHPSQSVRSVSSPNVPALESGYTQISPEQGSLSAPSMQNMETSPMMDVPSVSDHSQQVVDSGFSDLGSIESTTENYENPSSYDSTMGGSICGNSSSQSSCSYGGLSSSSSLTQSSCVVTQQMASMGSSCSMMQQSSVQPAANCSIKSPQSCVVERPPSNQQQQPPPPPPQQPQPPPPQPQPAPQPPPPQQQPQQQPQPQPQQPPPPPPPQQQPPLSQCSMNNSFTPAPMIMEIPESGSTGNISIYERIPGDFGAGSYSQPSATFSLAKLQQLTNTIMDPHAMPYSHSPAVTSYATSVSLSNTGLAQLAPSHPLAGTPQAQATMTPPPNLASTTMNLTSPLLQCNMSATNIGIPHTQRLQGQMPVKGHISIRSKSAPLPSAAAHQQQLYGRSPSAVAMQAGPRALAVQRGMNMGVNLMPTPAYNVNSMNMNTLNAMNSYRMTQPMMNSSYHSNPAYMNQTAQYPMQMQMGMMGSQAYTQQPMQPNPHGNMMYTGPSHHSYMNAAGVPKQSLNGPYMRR
Procedure: Biological Assay Section 1 KAT Assay Protocol:
A. Compound Preparation • 1. Prepare 10 mM stock solutions in 100% DMSO from solid material • 2. Serial dilute 10 mM, 1 mM or 0.1 mM compound stocks 3-fold in 100% DMSO for 11-point dose response
B. Reagent Preparation • 1. Prepare 1× assay buffer containing 10 mM Tris HCL pH 8.0, 2.5 mM NaCl, 0.5 mM EDTA, 0.005% BSG and 0.02% Tween-20 • 2. Dilute Histone peptide (CPC Scientific) and AcCoA (Sigma) together in assay buffer to 2×. • 3. Dilute KAT enzyme in assay buffer to 2×.
C. Enzyme Reaction • 1. Final reaction conditions for each KAT assay in a 20 ul assay reaction volume: • i. […] Add 0.5 ul of diluted compound to the assay plate (384-well V-bottom polypropylene plates) or 0.5 ul of DMSO for control wells. • 3. Add 10 ul of 2× Histone peptide/2× AcCoA mix to the assay plate. • 4. Add 10 ul of 2× enzyme to the assay plate. • 5. Stop the reaction after the indicated time with the addition of 2 ul of 5% formic acid • 6. Each reaction was analyzed using self-assembled monolayer desorption/ionization time-of-flight mass spectrometry (Mrksich, Milan (2008) Mass Spectrometry of Self-Assembled Monolayers: A New Tool for Molecular Surface Science ACS Nano 2008 2 (1), 7-18; SAMDI Tech, Inc. (Chicago, IL)). • 7. Area under the curve (AUC) for both substrate and product peaks was determined for KAT6A at M.W. 2723 [Substrate+H]^+ and 2765 [Product+H]^+ with a +/−1 Da tolerance, respectively. • 8. Percent conversion to product was calculated by: AUCProduct/(AUCSubstrate+AUCProduct).
D. Data Analysis • 1. IC50 values were determined by fitting the % conversion at each inhibitor concentration to the 4-parameter IC50 equation using Pfizer proprietary curve fitting software. • 2. Ki values were determined by fitting the % conversion at each inhibitor concentration to the Morrison equation for tightbinding competitive inhibitors using Pfizer proprietary curve fitting software. Materials
KAT enzymes were expressed using a baculovirus expression system and purified at Pfizer, La Jolla. Histone H3 (1-21) peptide ([…], SEQ ID NO:3) was purchased from CPC Scientific (Sunnyvale, CA). Acetyl coenzyme A was purchased from Sigma-Aldrich (St. Louis, MO). All other biochemical reagents were purchased from Sigma-Aldrich or ThermoFisher Scientific (Waltham, MA).
[…] 10 ul of 2× Histone peptide/AcCoA mix was added to a 384-well V-bottom polypropylene assay plate containing 0.5 ul of serially diluted test compound in 100% dimethyl sulfoxide (DMSO). To start the reaction, 10 ul of 2× enzyme solution was added to the assay plate. KAT assays were terminated after 30-60 minutes with the addition of 2 ul of 5% formic acid. KAT6A used histone H3 (1-21) peptide. The final enzyme concentration for KAT6A was 15 nM. Each reaction was analyzed using self-assembled monolayer desorption/ionization time-of-flight mass spectrometry (Mrksich, Milan (2008) Mass Spectrometry of Self-Assembled Monolayers: A New Tool for Molecular Surface Science ACS Nano 2008 2 (1), 7-18; SAMDI Tech, Inc. (Chicago, IL)).
Area under the curve (AUC) for both substrate and product peaks was determined for KAT6A at M.W. 2723 [Substrate+H]^+ and 2765 [Product+H]^+ with a +/−1 Da tolerance, respectively. Percent conversion to product was calculated by: AUCProduct/(AUCSubstrate+AUCProduct). IC50 values were determined by fitting the % conversion at each inhibitor concentration to the 4-parameter IC50 equation using Pfizer proprietary curve fitting software. Ki values were determined by fitting the % conversion at each inhibitor concentration to the Morrison equation for tightbinding competitive inhibitors using Pfizer proprietary curve fitting software.

[2] = target: TIP60-KAT5 (Homo sapiens (Human), UniProt Q92993); test: biochemical
Sequence of TIP60-KAT5 (Q92993 other isoform, or with tags, fused parts or gaps): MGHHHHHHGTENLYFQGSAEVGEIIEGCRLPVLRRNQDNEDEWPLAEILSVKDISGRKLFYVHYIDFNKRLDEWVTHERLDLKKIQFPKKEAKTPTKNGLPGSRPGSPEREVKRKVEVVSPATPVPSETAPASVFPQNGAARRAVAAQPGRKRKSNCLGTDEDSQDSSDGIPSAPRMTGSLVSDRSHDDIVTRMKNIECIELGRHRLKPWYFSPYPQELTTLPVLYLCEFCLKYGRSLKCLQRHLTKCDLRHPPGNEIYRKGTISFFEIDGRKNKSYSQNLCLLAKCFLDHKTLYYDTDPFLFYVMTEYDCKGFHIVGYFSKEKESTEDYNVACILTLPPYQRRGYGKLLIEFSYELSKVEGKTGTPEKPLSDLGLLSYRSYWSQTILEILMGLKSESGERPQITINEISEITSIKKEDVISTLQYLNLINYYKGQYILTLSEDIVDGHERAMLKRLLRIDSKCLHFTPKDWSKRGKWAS

[3] = target: MOZ-KAT6A (Homo sapiens (Human), UniProt Q92794); test: biochemical
Sequence of MOZ-KAT6A (Q92794 other isoform, or with tags, fused parts or gaps): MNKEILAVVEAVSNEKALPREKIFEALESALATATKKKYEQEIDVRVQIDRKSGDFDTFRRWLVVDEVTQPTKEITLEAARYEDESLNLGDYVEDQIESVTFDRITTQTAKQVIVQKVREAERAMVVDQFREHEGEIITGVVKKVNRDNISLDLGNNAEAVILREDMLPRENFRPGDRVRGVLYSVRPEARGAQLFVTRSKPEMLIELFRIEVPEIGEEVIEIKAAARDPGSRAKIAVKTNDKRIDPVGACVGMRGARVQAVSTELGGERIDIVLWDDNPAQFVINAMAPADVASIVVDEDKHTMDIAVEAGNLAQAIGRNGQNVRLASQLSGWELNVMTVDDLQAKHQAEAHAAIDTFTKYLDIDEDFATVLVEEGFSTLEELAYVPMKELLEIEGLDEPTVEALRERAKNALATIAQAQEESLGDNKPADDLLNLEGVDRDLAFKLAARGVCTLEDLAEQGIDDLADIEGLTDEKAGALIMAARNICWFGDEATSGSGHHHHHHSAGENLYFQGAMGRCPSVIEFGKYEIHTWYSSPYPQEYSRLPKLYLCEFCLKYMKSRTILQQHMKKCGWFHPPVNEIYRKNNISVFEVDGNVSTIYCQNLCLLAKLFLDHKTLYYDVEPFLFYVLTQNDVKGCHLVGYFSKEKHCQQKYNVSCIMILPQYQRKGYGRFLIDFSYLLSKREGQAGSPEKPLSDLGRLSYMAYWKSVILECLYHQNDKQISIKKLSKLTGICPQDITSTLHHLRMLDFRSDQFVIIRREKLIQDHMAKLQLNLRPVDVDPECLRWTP

[4] = target: HBO1-KAT7 (Homo sapiens (Human), UniProt O95251); test: biochemical
Sequence of HBO1-KAT7 (O95251 other isoform, or with tags, fused parts or gaps): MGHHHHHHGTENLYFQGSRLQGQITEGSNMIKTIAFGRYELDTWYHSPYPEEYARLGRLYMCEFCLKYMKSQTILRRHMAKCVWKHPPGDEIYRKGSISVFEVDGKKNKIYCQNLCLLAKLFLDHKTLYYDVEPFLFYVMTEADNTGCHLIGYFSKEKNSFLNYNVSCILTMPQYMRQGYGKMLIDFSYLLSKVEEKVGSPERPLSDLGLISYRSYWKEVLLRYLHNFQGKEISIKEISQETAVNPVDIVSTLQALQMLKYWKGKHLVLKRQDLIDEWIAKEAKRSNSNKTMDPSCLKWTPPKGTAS

SMILES: COc1cc(Cn2cccn2)cc2onc(NS(=O)(=O)CC3CCCCC3)c12 [Example 123]
inhibition at 1 µM [1]: 85% | pIC50 ([1]; KAT6A IC50 at 1 μM AcCoA): 7.54 | pKi ([1]; KAT6A Ki at 10 μM AcCoA, 10 μM AcCoA, Morrison equation): 8.26 | pIC50 [2]: 5.04 | pIC50 [3]: 7.82 | pIC50 [4]: 5.90

SMILES: COc1cc(Cn2cccn2)cc2onc(NS(=O)(=O)CC(C)OCC3CCCC3)c12 (centres unmarked) [Example 127]
pIC50 ([1]; KAT6A IC50 at 1 μM AcCoA): 7.44

SMILES: COc1cc(Cn2cccn2)cc2onc(NS(=O)(=O)C3CCC(F)(F)CC3)c12 [Example 51]
inhibition at 1 µM [1]: 65%

SMILES: COc1cc(Cn2cccn2)cc2onc(NS(=O)(=O)C3CCCCC3)c12 [Example 124]
inhibition at 1 µM [1]: 88% | pIC50 ([1]; KAT6A IC50 at 1 μM AcCoA): 6.93 | pIC50 [2]: 5.62 | pIC50 [3]: 7.52 | pIC50 [4]: 6.36

SMILES: CC[C@@H]1C[C@@H]1S(=O)(=O)Nc1noc2cc(Cn3cccn3)cc(OC)c12 [Example 26]
inhibition at 1 µM [1]: 71%

The next lines start with the values.

inhibition at 1 µM [1]: 40%
SMILES: COc1cc(Cn2cccn2)cc2onc(NS(=O)(=O)CC3(C#N)CC3)c12 [Example 35]

pIC50 ([1]; read-out: KAT6A IC50 at 1 μM AcCoA): 6.89
SMILES: COc1cc(Cn2cccn2)cc2onc(NS(=O)(=O)CC(C)C)c12 [Example 128]

inhibition at 1 µM [1]: 60%
SMILES: COc1cc(Cn2cccn2)cc2onc(NS(=O)(=O)C3CCC(=O)CC3)c12 [Example 80]

inhibition at 1 µM [1]: 35%
SMILES: COc1cc(Cn2cccn2)cc2onc(NS(=O)(=O)CC3CCCC4(CCC4)O3)c12 (centres unmarked) [Example 120]

inhibition at 1 µM [1]: 61%
SMILES: COc1cc(Cn2cccn2)cc2onc(NS(=O)(=O)C3CCC(C)CC3)c12 (centres unmarked) [Example 82]

inhibition at 1 µM [1]: 80%
SMILES: COc1cc(Cn2cccn2)cc2onc(NS(=O)(=O)CCCC3CCOCC3)c12 [Example 104]
